Test results as given in US10155743B2, “Glutarimide derivatives, use thereof, pharmaceutical composition based thereon and methods for producing glutarimide derivatives” (OBSCHESTVO S OGRANICHENNOI OTVETSTVENNOSTIYU …, priority 2013, dated 2018).
Like-named read-outs stand apart in the source and are kept apart here.

Test system: human virus hRSV adapted to the growth in mouse lungs
Assay: animal or person
Type: in vivo
Conditions: for Body weight of the mice after infection with hRSV, Day 5 / Body weight of the mice after infection with hRSV, Day 7: 30 mg/kg orally once daily for 5 days from 24 h after infection, M ± SD, n = 6; for hRSV viral titer in mouse lungs, Day 5, lg / hRSV viral titer in mouse lungs, Day 7, lg: 30 mg/kg orally once daily for 5 days, 10% lung suspension titrated in Hep-2 cell culture, TCID; for log reduction at 30 mg/kg: human respiratory syncytial virus, po, 120 h
[1] = read-out: Suppression of the reproduction of hRSV virus in mouse lungs, Day 5, Δlg
[2] = read-out: Suppression of the reproduction of hRSV virus in mouse lungs, Day 7, Δlg

| Compound | Body weight of the mice after infection with hRSV, Day 5 | Body weight of the mice after infection with hRSV, Day 7 | hRSV viral titer in mouse lungs, Day 5, lg [lg] | hRSV viral titer in mouse lungs, Day 7, lg [lg] | log reduction at 30 mg/kg [1] | log reduction at 30 mg/kg [2] |
| --- | --- | --- | --- | --- | --- | --- |
| O=C1CCCC(=O)N1CCc1cnc[nH]1 [Compound 1, 1-(2-(1H-imidazol-4-yl)ethyl)piperidine-2,6-dione] | 16.43 ± 0.14 | 17.98 ± 0.26 | 2.88 ± 0.59 | 1.46 ± 0.17 | 1.73 ± 0.59 | 2.34 ± 0.17 |
| CC1(C)CC(=O)N(CCc2cnc[nH]2)C(=O)C1 [Compound 3] | 16.65 ± 0.28 | 17.32 ± 0.25 | 3.04 ± 0.42 | 1.46 ± 0.17 | 1.56 ± 0.42 | 2.18 ± 0.28 |
| O=C1CCCC(=O)N1CCC1CCCN1 (stereo not shown) [Compound 4] | 16.77 ± 0.20 | 17.08 ± 0.32 | 2.58 ± 0.51 | 1.38 ± 0.24 | 2.02 ± 0.51 | 2.58 ± 0.53 |
| Cn1cnc(CCN2C(=O)CCCC2=O)c1 [Compound 5] | 16.02 ± 0.16 | 17.78 ± 0.26 | 2.17 ± 0.37 | 0.88 ± 0.31 | 2.43 ± 0.37 | 2.93 ± 0.31 |
| O=C1CCCC(=O)N1CCc1nccs1 [Compound 6] | 16.47 ± 0.26 | 17.02 ± 0.29 |  |  |  |  |
| O=C1CCCC(=O)N1CCc1nc2ccccc2s1 [Compound 7, 1-[2-(1H-benzothiazol-2-yl)ethyl]piperidine-2-dione] | 17.17 ± 0.26 | 18.53 ± 0.55 |  |  |  |  |
| O=C1CCCC(=O)N1CCc1ncc[nH]1 [Compound 8] | 15.18 ± 0.18 | 17.13 ± 0.27 |  |  |  |  |
| O=C1CCCC(=O)N1CCc1ccncc1 [Compound 9] | 15.75 ± 0.33 | 16.18 ± 0.29 |  |  |  |  |
| O=C1CCCC(=O)N1CCc1cccnc1 [Compound 10, 1-[2-(1H-pyridyl-3-yl)ethyl]piperidine-2,6-dione] | 16.18 ± 0.29 | 16.53 ± 0.20 |  |  |  |  |
| O=C1CCCC(=O)N1CCN1CCOCC1 [Compound 117] | 16.07 ± 0.12 | 16.48 ± 0.28 | 3.00 ± 0.41 | 1.46 ± 0.24 | 1.6 ± 0.41 | 2.22 ± 0.34 |
| O=C1CCCC(=O)N1CCC1CCNC1 (stereo not shown) [Compound 120] | 16.12 ± 0.27 | 17.22 ± 0.20 | 3.04 ± 0.47 | 1.50 ± 0.25 | 1.56 ± 0.47 | 2.05 ± 0.25 |
| O=C1CCCC(=O)N1CCC1CCCNC1 (stereo not shown) [Compound 121] | 16.35 ± 0.20 | 17.38 ± 0.29 | 3.08 ± 0.47 | 1.50 ± 0.14 | 1.52 ± 0.47 | 2.09 ± 0.22 |
| O=C1CCCC(=O)N1CCC1CCCCN1 (stereo not shown) [Compound 122] | 16.93 ± 0.32 | 16.37 ± 0.21 | 3.04 ± 0.44 | 1.75 ± 0.41 | 1.56 ± 0.44 | 1.88 ± 0.47 |
| O=C1CCCC(=O)N1CCC1CCNCC1 [Compound 123] | 15.87 ± 0.20 | 17.55 ± 0.53 | 2.50 ± 0.43 | 1.33 ± 0.19 | 2.1 ± 0.43 | 2.62 ± 0.5 |
| O=C1CCCC(=O)N1CCc1nc2ccccc2[nH]1 [Compound 124] | 16.43 ± 0.26 | 16.37 ± 0.43 | 2.46 ± 0.22 | 0.83 ± 0.37 | 2.14 ± 0.22 | 2.97 ± 0.37 |
